The record followed here is patent US8536196B2, “Substituted 1,3-dioxanes useful as PPAR modulators” (Evolva SA, priority 2007, dated 2013).

What is called inhibition is the drop in the measured response relative to a control, in per cent. Read a low inhibition as a response near the control.

One data set deals with KKA^y mice. Kind of data set: Glucose lowering effect in KKAy mouse model. The class given is in vivo. The procedure: (§1) 52 male KKA^y mice were obtained commercially (e.g., from Clea Japan) at an age of 6 weeks and put on a high fat diet upon arrival. Individual mice were housed in IVC Type II cages during both the acclimatization and the experimental phase. Both food (high fat diet) and water were supplied ad libitum.
(§2) Mice were randomized into treatment groups according to their 4-h fasting blood glucose.
(§3) 4 hours after the last administration, non-fasting conditions.
(§4) Blood was collected into heparin containing glass capillaries which were subsequently centrifuged in a “Haematokrit 24” centrifuge (Hettich) at 15′200×g for 10 min at room temperature to obtain the hematocrit value.
(§5) The following serum parameters were determined on a COBAS INTEGRA 800 auto analyzer (Roche Diagnostics, Switzerland) using the reagents and protocols provided by the supplier.
(§6) All measurements were made on Day 14 of administration, except for the food intake and body weight measurements that were made on Day 12.

Data set [1] can be described thus: Glucose lowering effect in KKAy mouse model. Conditions: male, mouse, serum; KKA^y mice, 53 mg/kg BID oral gavage 14 days, 4 hours after the last administration, average ± S.E.M.; read-out: Serum level of the compound. The data set is classed as in vivo. As to the method:
as §1, §2, §3, §4, §5, §6

The test system of data set [2] is mice (FeCl3 induced femoral artery thrombosis). The data set is described as follows: FeCl3 arterial thrombosis mouse model (occlusion time, blood flow). The class given is in vivo. As to the method: The solutions were diluted 3.3-fold in saline and 100 μl/25 g was injected.
During the experiments, a soluble potassium salt of the drug was provided, diluted in saline. Of this formulation, 100 μl/25 g was injected i.v. in the tail vein (dose of 100 mg/kg).
Aspirin is given the same way at a dose of 200 mg/kg. Clopidogrel is administered by oral gavage at a dose of 20 mg/kg at 6-7 hours prior to the experiment. The solutions were coded (except for clopidogrel) and the operator was blinded to the code. The animals assigned to each group were matched for body weight. All mice used were 8-10 weeks old males and were in a 100% Swiss genetic background.
(§7) The flow in each image is expressed as a percentage of that at the contralateral side, and data are averaged for all 120 images to determine total flow. The same analysis is performed for 10 min intervals (which gives essentially the same information as the area under the curve). […] Flow before treatment is recorded as 100%, and that in occluded arteries as 0%. At the end of the experiment, blood is collected on 0.01M citrate by heart puncture for determination of blood cell counts. Plasma is prepared by centrifugation and stored at −20° C. for determination of drug levels.
Statistical analysis for differences between two groups is performed by non-parametric Student t-test. Occlusion times >30 min were considered equal to 30 min for statistical analysis. It should be noted that this approach may result in a statistical bias, the more so because the number of experiments is not the same in the different groups. Significance is set at p<0.05.

Data set [3] can be described thus: Blood cell analysis at end of thrombosis experiment. The data set is classed as in vivo, mouse. The procedure:
as §7
Table VI summarizes the results of blood cell analysis performed on a sample taken at the end of the observation period. (Z)-6-((2S,4S,5R)-2-(2-chlorophenyl)-4-(2-hydroxyphenyl)-1,3-dioxan-5-yl)hex-4-enoic is referred to in Table VI as EV.

For the next data set, the target named is T1, PPARgamma (h) (Homo sapiens, UniProt P37231).
T1 construct: host or cells: E. coli
T1 sequence (P37231 1-505): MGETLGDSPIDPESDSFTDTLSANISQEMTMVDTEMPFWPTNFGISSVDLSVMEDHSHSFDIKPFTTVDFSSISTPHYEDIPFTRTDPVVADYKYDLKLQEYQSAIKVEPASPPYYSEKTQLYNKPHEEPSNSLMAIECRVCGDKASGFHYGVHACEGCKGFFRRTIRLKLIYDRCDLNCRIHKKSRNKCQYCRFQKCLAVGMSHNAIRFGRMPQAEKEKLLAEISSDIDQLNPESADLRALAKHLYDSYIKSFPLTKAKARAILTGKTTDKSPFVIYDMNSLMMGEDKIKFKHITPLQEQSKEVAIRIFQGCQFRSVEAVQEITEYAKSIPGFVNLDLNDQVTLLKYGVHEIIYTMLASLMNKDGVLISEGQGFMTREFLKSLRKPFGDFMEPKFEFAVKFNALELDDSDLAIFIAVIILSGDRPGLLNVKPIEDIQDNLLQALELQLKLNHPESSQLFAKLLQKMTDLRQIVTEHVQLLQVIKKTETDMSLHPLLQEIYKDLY
The data set is described as follows: Human recombinant (E. coli) PPARgamma (h) binding assay. Conditions: @ 30 μM. The procedure: The results are expressed as a percent of control specific binding ((measured specific binding/control specific binding)×100) obtained in the presence of the test compounds. The IC50 values (concentration causing a half-maximal inhibition of control specific binding) and Hill coefficients (nH) were determined by non-linear regression analysis of the competition curves generated with mean replicate values using Hill equation curve fitting (Y=D+[(A D)/(1+(C/C50)nH)], where Y=specific binding, D=minimum specific binding, A=maximum specific binding, C=compound concentration, C50=IC50, and nH=slope factor). This analysis was performed using a software developed at Cerep (Hill software) and validated by comparison with data generated by the commercial software SigmaPlot® 4.0 for Windows® (© 1997 by SPSS Inc.). The inhibition constants (Ki) were calculated using the Cheng Prusoff equation (Ki=IC50/(1+(L/KD)), where L=concentration of radioligand in the assay, and KD=affinity of the radioligand for the receptor).

Data set [4] deals with 1.5 μM U-46619-induced platelet aggregation (platelet rich plasma). The data set is described as follows: TP receptor platelet aggregation - rabbit. The class given is cell-based, New Zealand Rabbit. The following applies: Oryctolagus cuniculus, @ 0.1 mM (printed in the 30 μM column). From the text:
TP Receptor Platelet Aggregation—Rabbit:
Thrombosis Research 33:277-288

Setting [5] is: 53 mg/kg BID oral gavage 14 days, Day 14, average ± S.E.M.
Where [6] appears, read: 30 mg/kg vehicle i.v., n = 4, mean ± SEM.
The mark [7] stands for this setting: 100 mg/kg vehicle i.v., n = 9, mean ± SEM.

In the case of `O=C(O)CC/C=C\C[C@@H]1CO[C@H](c2ccccc2Cl)O[C@@H]1c1ccccc1O` (single isomer, unassigned) [Compound B], in the data set with KKA^y mice (setting [5]), the ALP turned out to be 21.5 ± 1.6 dU/L, the ALT amounted to 5.1 ± 0.6 dU/L, the AST is given as 7.7 ± 1.0 dU/L and the Hematocrit was 40.1 ± 1.6%. The “Serum Glucose” value in the data set with KKA^y mice (setting [5]) is listed as “decreased”. Besides, the FFA entry in the data set on KKA^y mice (53 mg/kg BID oral gavage 14 days, Day 14, average ± S.E.M., listed as (Z)-6-(2S,4S,5R)-2-(2-chlorophenyl)-4-(2-hydroxyphenyl)-1,3-dioxan-5-yl(hex-4-e, 53 mg/kg)) is recorded as “slightly decreased”. For the same compound, the “Food Intake” value in the data set on KKA^y mice (53 mg/kg BID oral gavage, Day 12, average ± S.E.M.) was 5.0 ± 0.6 g/day. In data set [1], the concentration at 4 h was determined as 161 ± 60 ng/mL. The occlusion time result in data set [2] (30 mg/kg in vehicle (DMSO/PEG 400) i.v.) is given as “slightly prolongs the occlusion time as compared to aspirin (p=0.024), but has no effect as compared to vehicle”. In data set [2] (30 mg/kg in vehicle i.v.), the total blood flow result is on record as “no effect”. Further, in data set [2] (100 mg/kg in vehicle i.v.), the “blood flow, time window 0-10 min” value was “significantly higher flow as compared to aspirin (p=0.0002) but not as compared to vehicle only (p=0.11)” and the total blood flow result is reported as “improved total blood flow as compared to aspirin (p=0.055), but not as compared to vehicle (p=0.45)”. Besides, in data set [3] (setting [6]), the Hematocrit stood at 62 ± 7.3%, the Hemoglobin stood at 15 ± 0.28 g/dL, the Lymphocytes was found to be 42 ± 4.7% and the Neutrophils was found to be 56 ± 5.3%. Moreover, in data set [3] (setting [6]), the Platelets is recorded as 1020 ± 89 ×10^3/μl, the Red blood cells is 9.1 ± 0.26 ×10^6/μl and the White blood cells is reported as 0.95 ± 0.17 ×10^3/μl. In data set [3] (setting [7]), this compound had a Hematocrit of 70 ± 3.5%, a Hemoglobin of 15 ± 0.30 g/dL, a Lymphocytes of 58 ± 11% and a Neutrophils of 34 ± 12%. In addition, in data set [3] (setting [7]), the Platelets is 895 ± 46 ×10^3/μl, the Red blood cells is on record as 9.2 ± 0.17 ×10^6/μl and the White blood cells is 1.5 ± 0.46 ×10^3/μl.
Take `O=C(O)CC/C=C\C[C@H]1COC(c2ccccc2Cl)O[C@H]1c1ccccc1O` (single isomer, unassigned) [Compound A]: the “PPARgamma binding @ 30 μM” value on PPARgamma (h) was “no binding”. Also, at 100 µM the inhibition in data set [4] was 15%.
